By IC50 is commonly meant the concentration that inhibits the measured activity by half.

Consider 11 molecules from US20260274861A1, “FUSED RING COMPOUND, PREPARATION METHOD THEREFOR AND MEDICINAL APPLICATION THEREOF” (JIANGSU HENGRUI PHARMACEUTICALS CO., LTD., priority 2022, published 2026).

Common to all, as to format: cell-based
In one test the test system is AsPC-1 cells. The test can be described thus: Inhibition of 3D proliferation of AsPC-1 cells (CellTiter-Glo 3D). Conditions: Homo sapiens, ASPC1, 120 h, 5 days. The protocol:
On the first day of the experiment, well-grown AsPC-1 cells with 70%-80% confluency were digested and resuspended in an RPMI 1640 culture medium (Hyclone, SH30809.01) containing 10% FBS, and the cell density was adjusted to the desired level. The cell suspension was added to a U-shaped low-adsorption 96-well plate (Corning, CLS7007-24EA) at 90 μL/well, with a cell density of 1500 cells/well. The cell plate was centrifuged at 2500 rpm for 5 min and then incubated overnight in a 37° C., 5% CO2 incubator. The next day, 20 mM test compounds dissolved in DMSO were diluted to an initial concentration of 2 mM and then serially diluted 5-fold, and a total of 9 concentration points were obtained. Control wells were set using DMSO. The serially diluted compounds were then further diluted 20-fold with a culture medium. The test compounds, diluted with the culture medium, were added to the cell plate at 10 μL/well, with the final concentrations of the compounds being 9 concentration points obtained by 5-fold serial dilution from an initial concentration of 10 μM. Cell wells containing 0.5% DMSO were set as vehicle control wells, and wells containing only the culture medium and 0.5% DMSO were set as blank control wells. A duplicate well was set for each concentration of the compounds and the control wells, with the final concentration of DMSO in each well being 0.5%. The cell plate was centrifuged at 2500 rpm for 3 min and then incubated in a 37° C., 5% CO2 incubator for 5 days. On the seventh day, the 96-well cell culture plate was taken out, and 50 μL of the CellTiter-Glo® Luminescent 3D Cell Viability Assay reagent (Promega, G^9683) was added to each well. The plates were shaken at room temperature in the dark for 25 min. The contents in the wells were pipetted up and down for good uniformity, and then 100 μL of the mixture was transferred from each well to a white impermeable OptiPlate™-96-well plate (PerkinElmer, 6005290). The luminescence signal values were obtained using a multi-mode microplate reader (PerkinElmer, EnVision2105).
The inhibition rate was calculated using the formula: inhibition rate=(luminescence valuevehicle control well−luminescence valuetest compound)/(luminescence valuevehicle control well−luminescence valueblank control well)×100%. Curves were plotted using GraphPad Prism software based on the various concentrations of the compounds and the corresponding inhibition rates, and IC50 values for the compounds were calculated.

A further test relates to AGS cells. The experiment in a line: Inhibition of 3D proliferation of AGS cells (CellTiter-Glo 3D). Conditions: Homo sapiens, 120 h, 5 days. The protocol:
(§1) The inhibitory effects of the compounds of the present disclosure on the KRAS target were evaluated by assessing the inhibitory effects of the compounds of the present disclosure on the 3D proliferation of GP2d and AGS cells.
AGS cells were cultured in a complete culture medium, namely an RPM11640 medium (Hyclone, SH30809.01) containing 10% fetal bovine serum (Corning, 35-076-CV). On the first day of the experiment, the AGS cells were seeded into a 96-well low-adsorption plate (Corning, CLS7007-24EA) with a complete culture medium at a density of 1000 cells/well, with each well containing 90 μL of a cell suspension. The plate was centrifuged at 2000 rpm for 5 min at room temperature and then incubated overnight in a 37° C., 5% CO2 cell incubator.
(§2) The next day, the test compounds, serially diluted in a complete culture medium, were added at 10 μL/well. The final concentrations of the compounds for GP2d cells were 9 concentration points obtained by 5-fold serial dilution from 1 μM, and the final concentrations of the compounds for AGS cells were 9 concentration points obtained by 5-fold serial dilution from […]. A blank control containing 0.5% DMSO was set for both types of cells. The plates were incubated in a 37° C., 5% CO2 cell incubator for 5 days. On the seventh day, the 96-well cell culture plates were taken out, and 50 μL of the CellTiter-Glo® 3D Cell Viability Assay reagent (Promega, G^9682) was added to each well. The plates were shaken at room temperature in the dark for 25 min. The contents in the wells were pipetted for good uniformity, and 100 μL of the mixture was transferred from each well to a white impermeable 96-well plate (PerkinElmer, 6005290). The luminescence signal values were obtained using a multi-mode microplate reader (PerkinElmer, EnVision2105).
On the technique in general: Cellular ATP, detected with luciferase, serves as a proxy for viable cell number.

For another test, the system named is GP2d cells. The experiment in a line: Inhibition of 3D proliferation of GP2d cells (CellTiter-Glo 3D). Conditions: 120 h, 5 days. The protocol: as §1
GP2d cells were cultured in a complete culture medium, namely a DMEM/high glucose culture medium (Hyclone, SH30243.01) containing 10% fetal bovine serum (Corning, 35-076-CV). On the first day of the experiment, the GP2d cells were seeded into a 96-well low-adsorption plate (Corning, CLS7007-24EA) with a complete culture medium at a density of 1000 cells/well, with each well containing 90 μL of a cell suspension. The plate was centrifuged at 2000 rpm for 5 min at room temperature and then incubated overnight in a 37° C., 5% CO2 cell incubator.
as §2

For `CCc1c(F)ccc2cc(O)cc(-c3nc4c5c(nc(OCC6(CN7CCOCC7)CC6)nc5c3F)N3C[C@H]5CC[C@H](N5)[C@H]3[C@H](C)O4)c12` [Example 5, 5-Ethyl-6-fluoro-4-((5S,5aS,6S,9R)-1-fluoro-5-methyl-12-((1-(morpholinomethyl)cyclopropyl)methoxy)-5a,6,7,8,9,10-hexahydro-5H-4-oxa-3,10a,11,13,14-pentaaza-6,9-methanonaphtho[1,8-ab]heptalen-2-yl)naphthalen-2-ol], the IC50 with AsPC-1 cells turned out to be 5.7 nM; in the test with AGS cells it was 8.7 nM; in the test with GP2d cells it was 0.9 nM.

Turning to `CCc1c(F)ccc2cc(O)cc(-c3nc4c5c(nc(OCC6(CN7CC/C(=C\F)C7)CC6)nc5c3F)N3C[C@H]5CC[C@H](N5)[C@H]3[C@H](C)O4)c12` [Example 11, 5-Ethyl-6-fluoro-4-((5S,5aS,6S,9R)-1-fluoro-12-((1-(((E)-3-(fluoromethylene)pyrrolidin-1-yl)methyl)cyclopropyl)methoxy)-5-methyl-5a,6,7,8,9,10-hexahydro-5H-4-oxa-3,10a,11,13,14-pentaaza-6,9-methanonaphtho[1,8-ab]heptalen-2-yl)naphthalen-2-ol], half-maximal inhibition with GP2d cells (IC50) was put at 0.7 nM.

Molecule `CCc1c(F)ccc2cc(O)cc(-c3nc4c5c(nc(OCC6(CN7CC8CC(=C(F)F)CC8C7)CC6)nc5c3F)N3C[C@H]5CC[C@H](N5)[C@H]3[C@H](C)O4)c12` (stereo partly drawn) [Example 14] had an IC50 in the test with GP2d cells of 1.6 nM.

In the test with GP2d cells, `C=C1CN2CC(=C)CC2(COc2nc3c4c(nc(-c5cc(O)cc6ccc(F)c(CC)c56)c(F)c4n2)O[C@@H](C)[C@@H]2[C@@H]4CC[C@H](CN32)N4)C1` [Example 17, 4-((5S,5aS,6S,9R)-12-((2,6-Dimethylenetetrahydro-1H-pyrrolizin-7a(5H)-yl)methoxy)-1-fluoro-5-methyl-5a,6,7,8,9,10-hexahydro-5H-4-oxa-3,10a,11,13,14-pentaaza-6,9-methanonaphtho[1,8-ab]heptalen-2-yl)-5-ethyl-6-fluoronaphthalen-2-ol] had an IC50 of 0.9 nM.

As for `CCc1c(F)ccc2cc(O)cc(-c3nc4c5c(nc(OCC67CCCN6CC(=C(F)F)C7)nc5c3F)N3C[C@H]5CC[C@H](N5)[C@H]3[C@H](C)O4)c12` (stereo partly drawn) [Example 18, 4-((5S,5aS,6S,9R)-12-((2-(Difluoromethylene)tetrahydro-1H-pyrrolizin-7a(5H)-yl)methoxy)-1-fluoro-5-methyl-5a,6,7,8,9,10-hexahydro-5H-4-oxa-3,10a,11,13,14-pentaaza-6,9-methanonaphtho[1,8-ab]heptalen-2-yl)-5-ethyl-6-fluoronaphthalen-2-ol], 1.2 nM corresponded to half-maximal inhibition in the test on GP2d cells (IC50).

Turning to `CCc1c(F)ccc2cc(O)cc(-c3nc4c5c(nc(OCC6(CN7CCC(=CF)CC7)CC6)nc5c3F)N3C[C@H]5CC[C@H](N5)[C@H]3[C@H](C)O4)c12` [Example 23, 5-Ethyl-6-fluoro-4-((5S,5aS,6S,9R)-1-fluoro-12-((1-((4-(fluoromethylene)piperidin-1-yl)methyl)cyclopropyl)methoxy)-5-methyl-5a,6,7,8,9,10-hexahydro-5H-4-oxa-3,10a,11,13,14-pentaaza-6,9-methanonaphtho[1,8-ab]heptalen-2-yl)naphthalen-2-ol], the IC50 in the test with AsPC-1 cells came out at 7.9 nM; with GP2d cells it was 0.2 nM.

Take `C[C@@H]1Oc2nc(-c3cc(N)cc(Cl)c3C(F)(F)F)c(F)c3nc(OCC4(CN5CCC(=CF)CC5)CC4)nc(c23)N2C[C@H]3CC[C@H](N3)[C@@H]12` [Example 36, 3-Chloro-5-((5S,5aS,6S,9R)-1-fluoro-12-((1-((4-(fluoromethylene)piperidin-1-yl)methyl)cyclopropyl)methoxy)-5-methyl-5a,6,7,8,9,10-hexahydro-5H-4-oxa-3,10a,11,13,14-pentaaza-6,9-methanonaphtho[1,8-ab]heptalen-2-yl)-4-(trifluoromethyl)aniline]: the IC50 in the test on AsPC-1 cells came to 0.2 nM; in the test with AGS cells it was 0.9 nM; with GP2d cells, 0.06 nM.

In the case of `Cc1cc(N)c(F)c(-c2nc3c4c(nc(OCC5(CN6CCC(=CF)CC6)CC5)nc4c2F)N2C[C@H]4CC[C@H](N4)[C@H]2[C@H](C)O3)c1C(F)(F)F` [Example 38, 2-Fluoro-3-((5S,5aS,6S,9R)-1-fluoro-12-((1-((4-(fluoromethylene)piperidin-1-yl)methyl)cyclopropyl)methoxy)-5-methyl-5a,6,7,8,9,10-hexahydro-5H-4-oxa-3,10a,11,13,14-pentaaza-6,9-methanonaphtho[1,8-ab]heptalen-2-yl)-5-methyl-4-(trifluoromethyl)aniline], the IC50 in the test on AsPC-1 cells amounted to 1.7 nM; with AGS cells it was 5 nM; in the test with GP2d cells, 0.07 nM.

`Cc1cc(N)c(F)c(-c2nc3c4c(nc(OCC5(CN6CCC(=C(F)F)CC6)CC5)nc4c2F)N2C[C@H]4CC[C@H](N4)[C@H]2[C@H](C)O3)c1C(F)(F)F` [Example 40, 3-((5S,5aS,6S,9R)-12-((1-((4-(Difluoromethylene)piperidin-1-yl)methyl)cyclopropyl)methoxy)-1-fluoro-5-methyl-5a,6,7,8,9,10-hexahydro-5H-4-oxa-3,10a,11,13,14-pentaaza-6,9-methanonaphtho[1,8-ab]heptalen-2-yl)-2-fluoro-5-methyl-4-(trifluoromethyl)aniline] came in with a half-maximal inhibitory concentration (IC50) in the test on GP2d cells of 0.6 nM.

`C[C@@H]1Oc2nc(-c3ccc(F)c4sc(N)c(C#N)c34)c(F)c3nc(OCC4(CN5CCC(=C(F)F)CC5)CC4)nc(c23)N2C[C@H]3CC[C@H](N3)[C@@H]12` [Example 41, 2-Amino-4-((5S,5aS,6S,9R)-12-((1-((4-(difluoromethylene)piperidin-1-yl)methyl)cyclopropyl)methoxy)-1-fluoro-5-methyl-5a,6,7,8,9,10-hexahydro-5H-4-oxa-3,10a,11,13,14-pentaaza-6,9-methanonaphtho[1,8-ab]heptalen-2-yl)-7-fluorobenzo[b]thiophene-3-carbonitrile]: the IC50 with AsPC-1 cells worked out at 3.7 nM; in the test on GP2d cells, 0.4 nM.

With `Cc1nc(N)cc(-c2nc3c4c(nc(OCC5(CN6CCC(=CF)CC6)CC5)nc4c2F)N2C[C@H]4CC[C@H](N4)[C@H]2[C@H](C)O3)c1C(F)(F)F` [Example 42, 4-((5S,5aS,6S,9R)-1-Fluoro-12-((1-((4-(fluoromethylene)piperidin-1-yl)methyl)cyclopropyl)methoxy)-5-methyl-5a,6,7,8,9,10-hexahydro-5H-4-oxa-3,10a,11,13,14-pentaaza-6,9-methanonaphtho[1,8-ab]heptalen-2-yl)-6-methyl-5-(trifluoromethyl)pyridin-2-amine], the half-inhibitory concentration (IC50) in the test on AsPC-1 cells worked out at 1.8 nM; in the test with AGS cells it was 5.2 nM; with GP2d cells, 0.21 nM.
